Test in all cases: Herbicidal effect by foliage and soil treatment
Type in all cases: in vivo
Holding throughout (details): 10 g ai/10a, evaluated after 14 days

Experiment [1] relates to redroot pigweed (Amaranthus retroflexus). The source says: (§1) Experiment for Determination of Herbicidal Effect by Foliate and Soil Treatment Seeds of redroot pigweed (Amaranthus retroflexus), common blackjack (Bidens pilosa), kediock (Sinapis arvensis), common chickweed (Stellaria media), sicklepod (Cassia obtusifolia), black nightshade (Solanum nigrum), velvetleaf (Abutilon theophrasti), field bindweed (Convolvulus arvensis), wild chamomile (Matricaria chamomilla), cleavers (Galium aparine) and […] (Veronica hederaefolia), were uniformly sowed over a horticultural granular soil (produced by KUREHA CHEMICAL INDUSTRY, CO., LTD.; the same soil was used hereinafter) filled in a planter. The planter was placed in a greenhouse (maintained at 19 to 25° C.) to sprout these plants. Two seedlings of each sprouted plant were transplanted to a 10 cm-diameter pot filled with the horticultural granular soil and cultivated in the greenhouse (maintained at 19 to 25° C.) until reaching a cotyledonal to bifoliate period suited to the foliage and soil treatment. […] Next, additional amounts of Tween 20 and water were added to the obtained solution or suspension to produce a test solution. The plants prepared in the above (1) were placed within a frame having a predetermined inside area, and uniformly sprayed with the test solution using a sprayer such that the amount of each compound applied was controlled to a predetermined level. The plants sprayed with the test solution were placed again in the greenhouse (maintained at 19 to 25° C.) and cultivated therein. After 14 days, the degree of growth of each plant cultivated in the treated region was compared with that of plant cultivated in non-treated region, and evaluated according to the following ratings. The herbicidal activity of each test compound was represented by these ratings

Experiment [2] relates to common blackjack (Bidens pilosa).
Description: as §1

The test system of experiment [3] is common chickweed (Stellaria media).
Description: as §1

In experiment [4] the test system is velvetleaf (Abutilon theophrasti).
Description: as §1

In experiment [5] the test system is ivyleafspeedwell (Veronica hederaefolia).
Description: as §1

Experiment [6] deals with black nightshade (Solanum nigrum).
Description: as §1

For experiment [7], the system named is kediock (Sinapis arvensis).
Description: as §1

Experiment [8] relates to field bindweed (Convolvulus arvensis).
Description: as §1

For experiment [9], the system named is sicklepod (Cassia obtusifolia).
Description: as §1

In experiment [10] the test system is cleavers (Galium aparine).
Description: as §1

Experiment [11] concerns wild chamomile (Matricaria chamomilla).
Description: as §1

Regarding `COc1cc(Oc2cccc(C(F)(F)F)c2)nc(C(=O)NCCCl)c1` [Compound I-35], the “herbicidal activity rating, AR (Amaranthus retroflexus)” value (from here on “herbicidal activity rating, AR”) in experiment [1] is on record as 5 (percentage of weeds killed was not less than 80%). Also, the “herbicidal activity rating, BP (Bidens pilosa)” value (shortened to “herbicidal activity rating, BP”) in experiment [2] is on record as 5 (percentage of weeds killed was not less than 80%). For the same compound, the “herbicidal activity rating, SM (Stellaria media)” value (“herbicidal activity rating, SM” for short) in experiment [3] is reported as 5 (percentage of weeds killed was not less than 80%). The “herbicidal activity rating, AT (Abutilon theophrasti)” value in [4] is listed as 5 (percentage of weeds killed was not less than 80%). Further, the “herbicidal activity rating, VH (Veronica hederaefolia)” value (from here on “herbicidal activity rating, VH”) in [5] is 5 (percentage of weeds killed was not less than 80%). The “herbicidal activity rating, SN (Solanum nigrum)” value (“herbicidal activity rating, SN” below) in experiment [6] is on record as 5 (percentage of weeds killed was not less than 80%). Besides, the “herbicidal activity rating, SA (Sinapis arvensis)” value (from here on “herbicidal activity rating, SA”) in experiment [7] is 5 (percentage of weeds killed was not less than 80%). Also, in experiment [8], the “herbicidal activity rating, CA (Convolvulus arvensis)” value (“herbicidal activity rating, CA” for short) is given as 5 (percentage of weeds killed was not less than 80%). Also, the “herbicidal activity rating, CO (Cassia obtusifolia)” value (“herbicidal activity rating, CO” for short) in experiment [9] is given as 5 (percentage of weeds killed was not less than 80%). In [10], the “herbicidal activity rating, GA (Galium aparine)” value (shortened to “herbicidal activity rating, GA”) is recorded as 5 (percentage of weeds killed was not less than 80%). Besides, the “herbicidal activity rating, MC (Matricaria chamomilla)” value (“herbicidal activity rating, MC” below) in [11] is 5 (percentage of weeds killed was not less than 80%).

Turning to `CCCCNC(=O)c1cc(OC)cc(Oc2cccc(C(F)(F)F)c2)n1` [Compound I-36], the “herbicidal activity rating, AR” value in experiment [1] is 5 (percentage of weeds killed was not less than 80%). In experiment [2], the “herbicidal activity rating, BP” value is listed as 5 (percentage of weeds killed was not less than 80%). For the same compound, the “herbicidal activity rating, SM” value in [3] is 5 (percentage of weeds killed was not less than 80%). Besides, the “herbicidal activity rating, AT (Abutilon theophrasti)” value in [4] is 4 (percentage of weeds killed was not less than 60% and less than 80%). In [5], the “herbicidal activity rating, VH” value is 5 (percentage of weeds killed was not less than 80%). Moreover, the “herbicidal activity rating, SN” value in [6] is given as 5 (percentage of weeds killed was not less than 80%). For the same compound, in experiment [7], the “herbicidal activity rating, SA” value is recorded as 5 (percentage of weeds killed was not less than 80%). Also, in experiment [8], the “herbicidal activity rating, CA” value is listed as 5 (percentage of weeds killed was not less than 80%). Also, in experiment [9], the “herbicidal activity rating, CO” value was 5 (percentage of weeds killed was not less than 80%). In addition, in [10], the “herbicidal activity rating, GA” value is 5 (percentage of weeds killed was not less than 80%). Also, the “herbicidal activity rating, MC” value in experiment [11] is on record as 5 (percentage of weeds killed was not less than 80%).

As to `COc1cc(Oc2cccc(C(F)(F)F)c2)nc(C(=O)NC(C)C)c1` [Compound I-37, N-(i-propyl)-4-methoxy-6-{3-(trifluoromethyl)phenoxy}-2-pyridine carboxamide], the “herbicidal activity rating, AR” value in [1] was 5 (percentage of weeds killed was not less than 80%). Moreover, the “herbicidal activity rating, BP” value in experiment [2] was 5 (percentage of weeds killed was not less than 80%). In addition, the “herbicidal activity rating, SM” value in experiment [3] is reported as 5 (percentage of weeds killed was not less than 80%). Also, the “herbicidal activity rating, AT (Abutilon theophrasti)” value in experiment [4] is 4 (percentage of weeds killed was not less than 60% and less than 80%). Besides, the “herbicidal activity rating, VH” value in [5] is on record as 5 (percentage of weeds killed was not less than 80%). Further, the “herbicidal activity rating, SN” value in [6] is 5 (percentage of weeds killed was not less than 80%). Also, the “herbicidal activity rating, SA” value in [7] was 5 (percentage of weeds killed was not less than 80%). Also, the “herbicidal activity rating, CA” value in experiment [8] was 5 (percentage of weeds killed was not less than 80%). The “herbicidal activity rating, CO” value in experiment [9] is 5 (percentage of weeds killed was not less than 80%). For the same compound, in experiment [10], the “herbicidal activity rating, GA” value was 5 (percentage of weeds killed was not less than 80%). Besides, in experiment [11], the “herbicidal activity rating, MC” value is 5 (percentage of weeds killed was not less than 80%).

Regarding `COc1cc(Oc2cccc(OC(F)F)c2)nc(C(=O)NC(C)C)c1` [Compound I-38], the “herbicidal activity rating, AR” value in experiment [1] was 5 (percentage of weeds killed was not less than 80%). For the same compound, in experiment [2], the “herbicidal activity rating, BP” value is 2 (percentage of weeds killed was not less than 20% and less than 40%). Besides, the “herbicidal activity rating, SM” value in experiment [3] is 4 (percentage of weeds killed was not less than 60% and less than 80%). For the same compound, the “herbicidal activity rating, AT (Abutilon theophrasti)” value in experiment [4] is 4 (percentage of weeds killed was not less than 60% and less than 80%). Besides, the “herbicidal activity rating, VH” value in experiment [5] is given as 5 (percentage of weeds killed was not less than 80%). Also, in experiment [6], the “herbicidal activity rating, SN” value is on record as 5 (percentage of weeds killed was not less than 80%). In experiment [7], the “herbicidal activity rating, SA” value is on record as 5 (percentage of weeds killed was not less than 80%). In addition, the “herbicidal activity rating, CA” value in experiment [8] is 4 (percentage of weeds killed was not less than 60% and less than 80%). In experiment [9], the “herbicidal activity rating, CO” value was 4 (percentage of weeds killed was not less than 60% and less than 80%). Moreover, the “herbicidal activity rating, GA” value in [10] is recorded as 5 (percentage of weeds killed was not less than 80%). In addition, the “herbicidal activity rating, MC” value in experiment [11] is 4 (percentage of weeds killed was not less than 60% and less than 80%).

As to `COc1cc(Oc2cccc(OC(F)(F)F)c2)nc(C(=O)NC(C)C)c1` [Compound I-39], the “herbicidal activity rating, AR” value in experiment [1] is 5 (percentage of weeds killed was not less than 80%). For the same compound, in experiment [2], the “herbicidal activity rating, BP” value was 3 (percentage of weeds killed was not less than 40% and less than 60%). Moreover, in experiment [3], the “herbicidal activity rating, SM” value is listed as 5 (percentage of weeds killed was not less than 80%). In [4], the “herbicidal activity rating, AT (Abutilon theophrasti)” value is on record as 5 (percentage of weeds killed was not less than 80%). In [5], the “herbicidal activity rating, VH” value is 5 (percentage of weeds killed was not less than 80%). The “herbicidal activity rating, SN” value in experiment [6] is recorded as 5 (percentage of weeds killed was not less than 80%). Besides, the “herbicidal activity rating, SA” value in experiment [7] was 5 (percentage of weeds killed was not less than 80%). Besides, the “herbicidal activity rating, CA” value in experiment [8] was 5 (percentage of weeds killed was not less than 80%). Also, in [9], the “herbicidal activity rating, CO” value is reported as 5 (percentage of weeds killed was not less than 80%). In experiment [10], the “herbicidal activity rating, GA” value is reported as 5 (percentage of weeds killed was not less than 80%). Further, the “herbicidal activity rating, MC” value in [11] is 4 (percentage of weeds killed was not less than 60% and less than 80%).

Take `COc1cc(Oc2cccc(SC(F)(F)F)c2)nc(C(=O)NC(C)C)c1` [Compound I-40, N-(i-propyl)-4-methoxy-6-{3-(trifluoromethylmercapto)phenoxy}-2-pyridine carboxamide]: the “herbicidal activity rating, AR” value in experiment [1] is given as 5 (percentage of weeds killed was not less than 80%). The “herbicidal activity rating, BP” value in experiment [2] was 4 (percentage of weeds killed was not less than 60% and less than 80%). Further, in experiment [3], the “herbicidal activity rating, SM” value was 5 (percentage of weeds killed was not less than 80%). Moreover, the “herbicidal activity rating, AT (Abutilon theophrasti)” value in experiment [4] is listed as 5 (percentage of weeds killed was not less than 80%). The “herbicidal activity rating, VH” value in experiment [5] was 5 (percentage of weeds killed was not less than 80%). In experiment [6], the “herbicidal activity rating, SN” value is 5 (percentage of weeds killed was not less than 80%). The “herbicidal activity rating, SA” value in experiment [7] is 5 (percentage of weeds killed was not less than 80%). Also, the “herbicidal activity rating, CA” value in [8] is 5 (percentage of weeds killed was not less than 80%). In addition, the “herbicidal activity rating, CO” value in experiment [9] is given as 5 (percentage of weeds killed was not less than 80%). In addition, the “herbicidal activity rating, GA” value in experiment [10] is on record as 5 (percentage of weeds killed was not less than 80%). In addition, in experiment [11], the “herbicidal activity rating, MC” value is 4 (percentage of weeds killed was not less than 60% and less than 80%).

For the origin of these results see patent US6339045B1, “N-(unsubstituted or substituted)-4-substituted-6-(unsubstituted or substituted)phenoxy-2-pyridinecarboxamides or thiocarboxamides, processes for producing the same, and herbicides” (Kureha Kagaku Kogyo Kabushiki Kaisha, priority 1995, dated 2002).
